Laboratory results published in patent US20090012150A1, “Stablized Pharmaceutical Composition Comprising an Amorphous Active Substance” (priority 2002, published 2009).
Read-outs that look alike come from different tables or passages of the source.

Settings: 6 days at 80° C.
Procedure: Nitrogen of 99% purity (vol/vol) purity was used as an inert gas. The samples were stored at 80° C. for 6 days, and then the assay of impurities was determined by High Performance Liquid Chromatography.
The oxygen content in the vials was determined by gas chromatography with a mass spectrometric detector (GC/MS).
The degradation products were determined by […] Agilent Technologies (Waldbronn, Germany) model HP 1100. Chromatograms were recorded by a UV detector at 250 nm. The column Chromolit Performance RP-18e 100×4.6 mm (Merck, Darmstadt, Germany) and the gradient of mobile phase A: 20 mM ammonium acetate pH 4.0, 5% (v/v) tetrahydrofuran and 25% (v/v) acetonitrile and the gradient of mobile phase B: 20 mM ammonium acetate pH 4.0, 5% (v/v) tetrahydrofuran and 70 (v/v) acetonitrile were used. The composition of the mobile phase was changed so that initially and to minute 2 there was 25% of mobile phase B (75% of mobile phase A), from minute 2 to minute 4.7 the composition of the mobile phase changed linearly to 100% mobile phase B and it remained such to the end of the analysis at minute 5.5. Flow rate of the mobile phase was 7 ml/min. […] The samples of atorvastatin calcium were dissolved in the solvent 200 mM Tris p H 7, 40% (v/v) acetonitrile of the concentration 0.5 mg/ml.

[1] = oxygen content in atmosphere 0.6 %
[2] = oxygen content in atmosphere 2.8 %, hemi calcium salt
[3] = oxygen content in atmosphere 12.2 %, hemi calcium salt
[4] = oxygen content in atmosphere 21.3 %, hemi calcium salt

SMILES | Increase in the assay of degradation products in % in reference to starting active substance [1] [%] | Increase in the assay of degradation products in % in reference to starting active substance [2] [%] | Increase in the assay of degradation products in % in reference to starting active substance [3] [%] | Increase in the assay of degradation products in % in reference to starting active substance [4] [%]
CC(C)c1c(C(=O)Nc2ccccc2)c(-c2ccccc2)c(-c2ccc(F)cc2)n1CC[C@@H](O)C[C@@H](O)CC(=O)O.CC(C)c1c(C(=O)Nc2ccccc2)c(-c2ccccc2)c(-c2ccc(F)cc2)n1CC[C@@H](O)C[C@@H](O)CC(=O)O.CC(C)c1c(C(=O)Nc2ccccc2)c(-c2ccccc2)c(-c2ccc(F)cc2)n1CC[C@@H](O)C[C@@H](O)CC(=O)[O-].CC(C)c1c(C(=O)Nc2ccccc2)c(-c2ccccc2)c(-c2ccc(F)cc2)n1CC[C@@H](O)C[C@@H](O)CC(=O)[O-].[Ca+2] (relative stereo) [Amorphous atorvastatin calcium, (R—(R*, R*))-2-(4-fluorophenyl)-β,δ-dihydroxy-5-(1-methylethyl)-3-phenyl-4((phenylamino)carbonyl)-1H-pyrrole-1-heptanoic acid hemi calcium salt] | 0 | 0.13 | 0.49 | 0.89
CC(C)c1c(C(=O)Nc2ccccc2)c(-c2ccccc2)c(-c2ccc(F)cc2)n1CC[C@@H](O)C[C@@H](O)CC(=O)O.CC(C)c1c(C(=O)Nc2ccccc2)c(-c2ccccc2)c(-c2ccc(F)cc2)n1CC[C@@H](O)C[C@@H](O)CC(=O)O.CC(C)c1c(C(=O)Nc2ccccc2)c(-c2ccccc2)c(-c2ccc(F)cc2)n1CC[C@@H](O)C[C@@H](O)CC(=O)[O-].CC(C)c1c(C(=O)Nc2ccccc2)c(-c2ccccc2)c(-c2ccc(F)cc2)n1CC[C@@H](O)C[C@@H](O)CC(=O)[O-].[Ca+2] (relative stereo) [Crystalline atorvastatin calcium, (R—(R*, R*))-2-(4-fluorophenyl)-β,δ-dihydroxy-5-(1-methylethyl)-3-phenyl-4((phenylamino)carbonyl)-1H-pyrrole-1-heptanoic acid hemi calcium salt] | 0 | 0 | 0.02 | 0.05
